Results from PMC7580834, “Inhibition mechanism of naphthylphenylamine derivatives acting on the CDC25B dual phosphatase and analysis of the molecular processes involved in the high cytotoxicity exerted by one selected derivative in melanoma cells” (Journal of Enzyme Inhibition and Medicinal Chemistry, 2020).
Like-named read-outs stand apart in the source and are kept apart here. Residues, ends and D or L forms follow the SMILES beside them. *: point of attachment. Cbz = O=C(OCc1ccccc1)*; CH2F = FC*

Columns and labels:
CDC25B [1] = target: T1, CDC25B (Homo sapiens, UniProt P30305); assay: Intrinsic fluorescence quenching of recombinant CDC25B catalytic domain (Stern-Volmer); type: binding; settings: for KSV (Stern-Volmer constant): 0.2 µM wild-type CDC25B, emission 357 nm, 20 °C, no OMFP; for Kd: reciprocal of KSV, inhibitor concentration leading to 50% quenching of CDC25B emission, read-out: K′D of the complex, Free CDC25B•inhibitor; for K′D/Ki ratio: K′D of free CDC25B•inhibitor over Ki
T1 sequence (P30305 377-551 isoform P30305-2 limits assumed): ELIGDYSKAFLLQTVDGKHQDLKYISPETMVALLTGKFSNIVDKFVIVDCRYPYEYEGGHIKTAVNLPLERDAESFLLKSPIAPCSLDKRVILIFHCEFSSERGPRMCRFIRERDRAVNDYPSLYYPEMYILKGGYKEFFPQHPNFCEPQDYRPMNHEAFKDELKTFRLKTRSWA
Description: (§1) Fluorescence spectra were recorded at 20 °C using a computer-assisted Cary Eclipse spectrofluorimeter (Varian, Palo Alto, CA, USA) equipped with an electronic temperature controller. The excitation wavelength was set at 280 nm and the excitation and emission slits were set at 10 and 20 nm, respectively. A 500 µL final volume of a 0.2 µM solution of CDC25B or CDC25B-C473S dissolved in 20 mM Tris•HCl, pH 7.8, 0.5 mM TCEP was directly prepared in the fluorimetric cuvette in the absence or in the presence of OMFP and/or some NPA derivatives. Serial pre-dilutions of the NPA derivatives or OMFP at increasing concentration were prepared in DMSO or methanol, respectively. Alongside, a convenient amount of the enzyme pre-dilution was prepared just before its usage for the experiment and stored on ice. When the combined effect of NPA derivative and OMFP was investigated, two enzyme pre-dilutions were prepared in the absence or in the presence of 5 µM OMFP. In order to evaluate the specific effect produced by any addition of solvent/ligand on the intrinsic fluorescence of the enzyme, 495 µL of the enzyme pre-dilution were placed in the fluorimetric cuvette and the relative spectrum was recorded; after the addition of 5 µL of each pre-dilution of solvent/ligand and fast mixing, the spectrum was recorded again. This procedure, repeated for each experimental point, allowed a normalisation of the specific effects produced by solvent/ligands. Furthermore, a correction was also applied for the little inner-filter effect due to the absorbance at 280 nm of the NPA derivative used at different concentrations; on the other hand, no correction was necessary for OMFP. All spectra, recorded at a scan speed of 120 nm/min, were normalised and corrected.

CDC25B [2] = target: T2, CDC25B (Homo sapiens, UniProt P30305); assay: Kinetic studies of CDC25B phosphatase inhibition (OMFP substrate); type: biochemical; settings: putative from Lineweaver-Burk plots (ref 18), confirmed by the fluorescence studies of this work
T2 sequence (P30305 1-580): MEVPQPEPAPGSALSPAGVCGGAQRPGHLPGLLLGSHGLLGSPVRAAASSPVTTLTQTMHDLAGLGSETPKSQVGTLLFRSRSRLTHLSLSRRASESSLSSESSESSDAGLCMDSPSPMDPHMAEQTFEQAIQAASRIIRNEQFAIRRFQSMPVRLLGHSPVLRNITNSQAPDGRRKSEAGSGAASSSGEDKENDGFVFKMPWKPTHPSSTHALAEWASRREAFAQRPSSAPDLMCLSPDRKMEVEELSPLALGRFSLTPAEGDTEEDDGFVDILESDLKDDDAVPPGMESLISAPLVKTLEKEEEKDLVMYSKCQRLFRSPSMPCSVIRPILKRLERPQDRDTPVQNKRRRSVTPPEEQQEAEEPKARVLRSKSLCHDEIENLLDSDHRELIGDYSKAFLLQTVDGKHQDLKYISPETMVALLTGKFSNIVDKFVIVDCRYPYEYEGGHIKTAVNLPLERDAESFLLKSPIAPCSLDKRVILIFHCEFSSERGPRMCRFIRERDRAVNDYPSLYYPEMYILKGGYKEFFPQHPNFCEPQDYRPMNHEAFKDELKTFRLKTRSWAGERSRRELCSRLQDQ

OMFP-bound CDC25B-C473S [3] = assay: Intrinsic fluorescence quenching of CDC25B-C473S in the presence of 5 µM OMFP (Stern-Volmer); type: binding; settings: for KSV (Stern-Volmer constant): 0.2 µM CDC25B-C473S, in the presence of 5 µM OMFP; for K′D/Ki ratio: K′D of OMFP-bound CDC25B-C473S•inhibitor over Ki
From the text: (§2) The mutant form of CDC25B, carrying the C473S replacement (CDC25B-C473S), was obtained through site-directed mutagenesis of the CDC25B catalytic segment cloned in pET28a-CDC25B-cd. To this aim, the QuikChange site-directed mutagenesis kit (Stratagene, La Jolla, CA, USA) and the forward and reverse primers for C473S replacement (5′d-[…]-3′ and 5′d-[…]-3′) were used. Positive clones were obtained, and the nucleotide sequencing of the mutagenised segment excluded the presence of undesired mutations. The new vector was called pET28a-CDC25B-C473S-cd. The expression of the new vector and the purification of the recombinant form of CDC25B-C473S catalytic domain were carried out as previously reported for wild-type CDC25B catalytic domain[18], and similar yields were obtained. As expected, the mutant enzyme was unable to hydrolyse the synthetic substrate OMFP, when its activity was checked with the fluorimetric assay method previously described.
as §1

OMFP-bound CDC25B-C473S [4] = target: T3, OMFP-bound CDC25B-C473S (Homo sapiens, UniProt P30305, C487S); assay: as above; type: binding; settings: reciprocal of KSV; presence of 5 µM OMFP; read-out: K′D of the complex, OMFP-bound CDC25B-C473S•inhibitor
T3 sequence (P30305 370-580 C487S): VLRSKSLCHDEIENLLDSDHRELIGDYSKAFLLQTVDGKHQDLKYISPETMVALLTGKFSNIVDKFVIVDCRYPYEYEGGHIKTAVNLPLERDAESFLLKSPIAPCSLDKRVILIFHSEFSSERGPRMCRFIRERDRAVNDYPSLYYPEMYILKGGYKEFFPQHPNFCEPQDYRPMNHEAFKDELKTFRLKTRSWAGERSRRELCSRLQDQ
From the text: as §2, §1

CDC25B [5] = target: T2, CDC25B; settings: cited from earlier work
some tumour cells = test system: some tumour cells; set-up: method as in PMID 22524450; settings: 200 µM; cited from earlier work
A375 cells = assay: Apoptosis by cytofluorimetry after PI incorporation (subdiploid DNA content); type: cell-based, human; settings: 100 µM Z-VAD-FMK plus 10 µM 4a, 48 h
Description: (§3) The human melanoma cell lines A375 and A2058, deriving from a primary tumour or lymph nodal metastasis, respectively, were kindly provided from CEINGE (Naples, Italy). Cells were grown in DMEM supplemented with 10% FBS, 2 mM L-glutamine, 100 IU/mL penicillin G and 100 µg/mL streptomycin in humidified incubator at 37 °C under 5% CO2 atmosphere. The cell line BJ-5ta, a human skin fibroblast immortalised with the human telomerase reverse transcriptase[30] was cultured in a 4:1 mixture of DMEM and Medium 199 supplemented with 4 mM L-glutamine, 4.5 g/L glucose, 1.5 g/L sodium bicarbonate, 10% FBS, 100 IU/mL penicillin G, […] streptomycin in humidified incubator at 37 °C under 5% CO2 atmosphere. All cells were split and seeded every 3 days and used during their exponential phase of growth. Cell treatments were usually carried out after 24 h from plating.
(§4) Cytofluorimetric analysis was used to determine the number of apoptotic nuclei essentially as previously described. Briefly, cells were seeded into six-well plates at 3 × 10^5 cells/well and after 24 h were treated with 4a or 0.5% (v/v) DMSO and incubated for different times. Then, cells were harvested with trypsin, and centrifuged, and the pellets were resuspended in 200 µL of a hypotonic lysis solution containing 50 µg/mL PI. After incubation at 4 °C for 30 min, cells were analysed with a FACScan flow cytometer (Becton Dickinson, Franklin Lakes, NJ, USA) to evaluate the presence of nuclei with DNA content lower than diploid.

A2058 cells = assay: as above; type: cell-based, human; settings: 100 µM Z-VAD-FMK plus 10 µM 4a, 48 h
Description: as §3, §4

KSV (Stern-Volmer constant) (CDC25B [1]) [µM⁻¹] | Kd (CDC25B [1]) [µM] | Inhibition mechanism (CDC25B [2]) | Kd (OMFP-bound CDC25B-C473S [4]) [µM] | K′D/Ki ratio (CDC25B [1]) | SMILES | also measured
0.016 | > 50 | uncompetitive | 43 |  | CCOC(=O)c1cccc(Nc2cccc3ccccc23)c1 [compound 4] | KSV (Stern-Volmer constant) (OMFP-bound CDC25B-C473S [3]): 0.023 µM⁻¹; K′D/Ki ratio (OMFP-bound CDC25B-C473S [3]): 5.9
0.129 | 7.8 | noncompetitive | 15.1 | 9.7 | Nc1cccc2c(Nc3cccc(C(=O)O)c3)cccc12 [7j] | 
 |  |  |  |  | O=C(O)c1ccc(C(=O)c2ccccc2C(=O)O)cc1C(=O)O [NSC28620] | Inhibition mechanism (CDC25B [5]; lead compound): reversible competitive; cell growth rate of some tumour cells (some tumour cells): reduced
0.011 | > 50 | uncompetitive | 24 |  | CCOC(=O)c1ccccc1Nc1cccc2ccccc12 [compound 3] | KSV (Stern-Volmer constant) (OMFP-bound CDC25B-C473S [3]): 0.042 µM⁻¹; K′D/Ki ratio (OMFP-bound CDC25B-C473S [3]): 8.6
0.069 | 14.5 | noncompetitive |  | 10.4 | Nc1ccc(Nc2cccc(C(=O)O)c2)c2ccccc12 [7i] | 
 |  |  |  |  | COC(=O)C[C@H](NC(=O)[C@H](C)NC(=O)[C@@H](NC(=O)OCc1ccccc1)C(C)C)C(=O)CF [Z-VAD-FMK, reference compound] (Cbz-Val-Ala-Asp(OMe)-CH2F) | apoptosis level induced by 4a upon exposure to the caspase inhibitor (A375 cells): partial but significant reduction; apoptosis level induced by 4a upon exposure to the caspase inhibitor (A2058 cells): partial but significant reduction
0.035 | 28.6 | noncompetitive |  | 10.6 | O=C(O)c1ccccc1Nc1ccc(O)c2ccccc12 [6e] | 
 |  |  |  |  | COc1ccc2c(c1)Oc1cc(OP(=O)(O)O)ccc1C21OC(=O)c2ccccc21 (stereo not drawn) [OMFP, O-methylfluorescein phosphate] | Km (CDC25B [5]; read-out: KM of the wild type CDC25B for the substrate): 2.7 ± 0.2 µM
